Several values for one entry are separate records, joined by “and”; a condition that tells them apart may be missing. Identical values can stand only once. Like-named read-outs stand apart in the source and are kept apart here.
How the values were obtained:
Assay in all cases: MIC values / microbial growth in Sabouraud maltose broth and synergistic index (Kull)
Type in all cases: cell-based
[1] = system: Penicillium funiculosum IMI 211742; settings: employed alone, incubation 72 hours at 25° C.; for MIC: Talaromyces funiculosus, IMI211742
Experimental: (§1) In addition to the biocide component and water, the aqueous mixtures also comprised a nutrient medium, viz. a Sabouraud maltose broth (commercial product, Merck No. 10393). The cell density was 10^6 cells/ml. The incubation time was 96 hours at 25° C. Each sample was incubated in a shaker-incubator at 120 rpm.
(§2) The synergistic index calculated by the method of F. C. Kull et al., Applied Microbiology, vol. 9 (1961), p. 538. Here, the synergistic index is calculated using the following formula: Synergistic index SI=Qa/QA+Qb/QB.
(§3) If the synergistic index has a value of above 1, this means that antagonism is present. If the synergistic index assumes a value of 1, this means that an additive effect of the two biocides exists. If the synergistic index assumes a value of less than 1, this means that synergism of the two biocides exists.
(§4) Again, the experimental batches contained a Sabouraud maltose broth as the nutrient medium. The cell density was 10^6 cells/ml. The incubation time was 72 hours at 25° C. Each sample was incubated in a shaker-incubator at 120 rpm.

[2] = system: Aspergillus niger DSM 1957; settings: for MIC: Aspergillus niger, DSM1957; for Synergistic index Qa/QA + Qb/QB: single active ingredient alone
Experimental: as §1, §2, §3, §4

[3] = system: Penicillium funiculosum DSM 12637; settings: employed alone, incubation 96 hours at 25° C.; for MIC: Talaromyces funiculosus, DSM12637
Experimental: as §1, §2, §3
Again, the experimental batches contained a Sabouraud maltose broth as the nutrient medium. The cell density was 10^6 cells/ml. The incubation time was 96 hours at 25° C. Each sample was incubated in a shaker-incubator at 120 rpm.

| Compound | MIC [1] | MIC ([2]; DCOIT alone (100.0 % by weight), 72 h/25° C., read-out: MIC at DCOIT concentration Qb) | MIC ([2]; employed alone, incubation 72 hours at 25° C., read-out: MIC value) | Synergistic index Qa/QA + Qb/QB ([2]; 72 h/25° C.) | MIC [3] | MIC value [3] | MIC value [1] | MIC at ZnPy concentration Qa ([2]; ZnPy alone (100.0 % by weight), 72 h/25° C.) | MIC value ([2]; employed alone, incubation 72 hours at 25° C.) |
| --- | --- | --- | --- | --- | --- | --- | --- | --- | --- |
| CCCCCCCCn1sc(Cl)c(Cl)c1=O [DCOIT, 4,5-dichloro-2-n-octyl-4-isothiazolin-3-one] | 1 µg/mL | 0.75 µg/mL | 0.75 µg/mL | 1.00 | 2 µg/mL |  |  |  |  |
| CCCCNC(=O)OCC#CI [IPBC, 3-iodo-2-propynyl N-butylcarbamate] | 0.75 µg/mL |  |  |  | 2 µg/mL |  |  |  |  |
| CCCCCCCCn1sccc1=O [OIT, 2-n-octylisothiazolin-3-one] |  |  |  |  |  | 0.5 ppm |  |  |  |
| zinc pyrithione [ZnPy] |  |  |  | 1.00 |  | 2 ppm | 1 ppm and 0.75 ppm | 17.5 ppm | 17.5 ppm |
